Values joined by “and” are separate entries in the source; they are usually repeats but may differ in a detail not shown here. Equal values may be shown once.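 Five concentrations, 48 hours, 96-well plates. At the GI50, growth is halved.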 Active and inactive are the calls of the source. No stated cut-off is given here; in the data, active = GI50 up to about 1.1 µM and inactive = higher.
Assays:
Experiment in all cases: NCI anticancer screen, dose series, 48 h
UO-31 = test system: UO-31
A549 = test system: A549
SNB-19 = test system: SNB-19
HOP-62 = test system: HOP-62
NCI-H226 = test system: NCI-H226
M14 = test system: M14
HL-60 = test system: HL-60
HCT-116 = test system: HCT-116
SR = test system: SR
NCI-H23 = test system: NCI-H23
K562 = test system: K562
KM12 = test system: KM12
SF-295 = test system: SF-295
SF-268 = test system: SF-268
OVCAR-3 = test system: OVCAR-3
UACC-62 = test system: UACC-62
ACHN = test system: ACHN
SW-620 = test system: SW-620
HOP-92 = test system: HOP-92
HT-29 = test system: HT-29

SMILES: C1=N\CCOCC/N=C\c2ccc(cc2)OCc2cccc(n2)COc2ccc/1cc2
- GI50 (UO-31): > 100 µM (inactive)
- GI50 (A549): > 100 µM (inactive)
- GI50 (SNB-19): > 100 µM (inactive)
- GI50 (HOP-62): > 100 µM (inactive)
- GI50 (NCI-H226): 57.8 µM (inactive)
- GI50 (M14): > 100 µM (inactive)
- GI50 (HL-60): > 100 µM (inactive)
- GI50 (HCT-116): > 100 µM (inactive)
- GI50 (SR): > 100 µM (inactive)
- GI50 (NCI-H23): > 100 µM (inactive)
- GI50 (K562): > 100 µM (inactive)
- GI50 (KM12): > 100 µM (inactive)
- GI50 (SF-295): 98.2 µM (inactive)
- GI50 (SF-268): > 100 µM (inactive)
- GI50 (OVCAR-3): 37.6 µM (inactive)
- GI50 (UACC-62): > 100 µM (inactive)
- GI50 (ACHN): > 100 µM (inactive)
- GI50 (SW-620): > 100 µM (inactive)
- GI50 (HOP-92): > 100 µM (inactive)
- GI50 (HT-29): > 100 µM (inactive)

SMILES: Cc1cc(C)nc(NS(=O)(=O)c2ccc(NNC(=O)c3cccc4c(=O)c5ccccc5[nH]c34)cc2)n1
- GI50 (UO-31): 41.6 µM (inactive)
- GI50 (A549): > 100 µM (inactive)
- GI50 (SNB-19): 88.5 µM (inactive)
- GI50 (HOP-62): 71.8 µM (inactive)
- GI50 (NCI-H226): 51.1 µM (inactive)
- GI50 (M14): > 100 µM (inactive)
- GI50 (HL-60): 41.2 µM (inactive)
- GI50 (HCT-116): 48.9 µM (inactive)
- GI50 (SR): 37.5 µM (inactive)
- GI50 (NCI-H23): 63 µM (inactive)
- GI50 (K562): 41 µM (inactive)
- GI50 (KM12): 39.5 µM (inactive)
- GI50 (SF-295): 80.5 µM (inactive)
- GI50 (SF-268): 43.2 µM (inactive)
- GI50 (OVCAR-3): 37.3 µM (inactive)
- GI50 (UACC-62): 71.6 µM (inactive)
- GI50 (ACHN): 32.4 µM (inactive)
- GI50 (SW-620): 83.8 µM (inactive)
- GI50 (HOP-92): 11.6 µM (inactive)
- GI50 (HT-29): 66.5 µM (inactive)

SMILES: COC(=O)C(C(=O)C(=O)Nc1nnc(S)[nH]1)c1csc(-n2nc(-c3ccccc3)cc2-c2ccccc2)n1 (stereo unspecified)
- GI50 (UO-31): 5.61 µM (inactive)
- GI50 (A549): > 100 µM (inactive)
- GI50 (SNB-19): > 100 µM (inactive)
- GI50 (HOP-62): > 100 µM (inactive)
- GI50 (NCI-H226): > 100 µM (inactive)
- GI50 (M14): > 100 µM (inactive)
- GI50 (HL-60): > 100 µM (inactive)
- GI50 (HCT-116): > 100 µM (inactive)
- GI50 (SR): > 100 µM (inactive)
- GI50 (NCI-H23): > 100 µM (inactive)
- GI50 (K562): > 100 µM (inactive)
- GI50 (KM12): > 100 µM (inactive)
- GI50 (SF-268): > 100 µM (inactive)
- GI50 (OVCAR-3): > 100 µM (inactive)
- GI50 (UACC-62): > 100 µM (inactive)
- GI50 (ACHN): > 100 µM (inactive)
- GI50 (SW-620): > 100 µM (inactive)
- GI50 (HOP-92): 44.5 µM (inactive)
- GI50 (HT-29): 27.5 µM (inactive)

SMILES: O=S(=O)(O)c1cc(O)c(/N=N/c2ccc(O)cc2O)c2ccccc12
- GI50 (A549): 59.3 µM (inactive)
- GI50 (SNB-19): > 100 µM (inactive)
- GI50 (HOP-62): 66.7 µM (inactive)
- GI50 (NCI-H226): 3.17 µM (inactive)
- GI50 (M14): 42.7 µM (inactive)
- GI50 (HL-60): 80.5 µM (inactive)
- GI50 (HCT-116): 36.6 µM (inactive)
- GI50 (SR): > 100 µM (inactive)
- GI50 (K562): > 100 µM (inactive)
- GI50 (KM12): 20.9 µM (inactive)
- GI50 (SF-295): 61.8 µM (inactive)
- GI50 (SF-268): 37.5 µM (inactive)
- GI50 (OVCAR-3): 27.2 µM (inactive)
- GI50 (ACHN): > 100 µM (inactive)
- GI50 (SW-620): 86.3 µM (inactive)
- GI50 (HOP-92): > 100 µM (inactive)
- GI50 (HT-29): 8.97 µM (inactive)

SMILES: O=C(N/N=C/c1cc(Br)cc(Br)c1O)c1ccccc1O
- GI50 (UO-31): 0.695 µM (active)
- GI50 (A549): 1.1 µM (active)
- GI50 (SNB-19): 0.912 µM (active)
- GI50 (HOP-62): 0.832 µM (active)
- GI50 (NCI-H226): 0.32 µM (active)
- GI50 (M14): 0.687 µM (active)
- GI50 (HL-60): 0.15 µM (active)
- GI50 (HCT-116): 1.82 µM (inactive)
- GI50 (SR): 0.258 µM (active)
- GI50 (NCI-H23): 0.52 µM (active)
- GI50 (KM12): 1.43 µM (inactive)
- GI50 (SF-295): 0.9 µM (active)
- GI50 (SF-268): 0.469 µM (active)
- GI50 (OVCAR-3): 0.273 µM (active)
- GI50 (UACC-62): 0.368 µM (active)
- GI50 (ACHN): 0.436 µM (active)
- GI50 (SW-620): 0.773 µM (active)
- GI50 (HOP-92): 1.2 µM (inactive)
- GI50 (HT-29): 3.38 µM (inactive)

SMILES: O=[N+]([O-])c1cccc(-c2ccc([C@H]3CC(c4ccc(Cl)cc4)=NN3)o2)c1
- GI50 (UO-31): 22.1 µM (inactive)
- GI50 (A549): > 100 µM (inactive)
- GI50 (SNB-19): 38.4 µM (inactive)
- GI50 (HOP-62): 20.3 µM (inactive)
- GI50 (NCI-H226): 25.5 µM (inactive)
- GI50 (M14): 30.1 µM (inactive)
- GI50 (HL-60): 0.893 µM (active)
- GI50 (HCT-116): 15.2 µM (inactive)
- GI50 (SR): 0.433 µM (active)
- GI50 (K562): 19.1 µM (inactive)
- GI50 (SF-295): 44.8 µM (inactive)
- GI50 (SF-268): 27 µM (inactive)
- GI50 (OVCAR-3): 18.9 µM (inactive)
- GI50 (UACC-62): 16.3 µM (inactive)
- GI50 (ACHN): 17.7 µM (inactive)
- GI50 (SW-620): 19.5 µM (inactive)
- GI50 (HOP-92): 17.3 µM (inactive)
- GI50 (HT-29): 21.3 µM (inactive)

SMILES: O=C(NC1C=Nc2ccc([N+](=O)[O-])cc2NC1=O)c1cc(Cl)cc([N+](=O)[O-])c1 (stereo unspecified)
- GI50 (UO-31): > 100 µM (inactive)
- GI50 (A549): > 100 µM (inactive)
- GI50 (SNB-19): > 100 µM (inactive)
- GI50 (HOP-62): > 100 µM (inactive)
- GI50 (NCI-H226): > 100 µM (inactive)
- GI50 (M14): > 100 µM (inactive)
- GI50 (HL-60): 12.9 µM (inactive)
- GI50 (HCT-116): > 100 µM (inactive)
- GI50 (SR): 72.3 µM (inactive)
- GI50 (NCI-H23): > 100 µM (inactive)
- GI50 (K562): 38.8 µM (inactive)
- GI50 (KM12): 54.3 µM (inactive)
- GI50 (SF-295): > 100 µM (inactive)
- GI50 (SF-268): > 100 µM (inactive)
- GI50 (UACC-62): 44.2 µM (inactive)
- GI50 (ACHN): > 100 µM (inactive)
- GI50 (SW-620): > 100 µM (inactive)
- GI50 (HOP-92): > 100 µM (inactive)
- GI50 (HT-29): > 100 µM (inactive)

SMILES: Oc1ccc2ccccc2c1/N=N/c1ccccc1
- GI50 (UO-31): > 100 µM (inactive)
- GI50 (A549): 57.5 µM (inactive)
- GI50 (SNB-19): > 100 µM (inactive) and > 72.8 µM (inactive)
- GI50 (HOP-62): 33.5 µM (inactive) and > 60 µM (inactive)
- GI50 (NCI-H226): 73.3 µM (inactive)
- GI50 (M14): > 100 µM (inactive)
- GI50 (HL-60): > 100 µM (inactive) and 73.1 µM (inactive)
- GI50 (HCT-116): > 100 µM (inactive)
- GI50 (SR): > 100 µM (inactive)
- GI50 (NCI-H23): > 100 µM (inactive)
- GI50 (K562): > 100 µM (inactive) and 91 µM (inactive)
- GI50 (OVCAR-3): 51.6 µM (inactive)
- GI50 (UACC-62): > 100 µM (inactive)
- GI50 (ACHN): 61 µM (inactive) and 60.7 µM (inactive)
- GI50 (SW-620): > 100 µM (inactive)
- GI50 (HOP-92): 73.5 µM (inactive)
- GI50 (HT-29): 49.5 µM (inactive) and > 64.7 µM (inactive)

SMILES: Cc1cn(C2CC(N)C(C(=O)NCC(=O)O)O2)c(=O)[nH]c1=O (stereo unspecified)
- GI50 (UO-31): > 100 µM (inactive)
- GI50 (SNB-19): > 100 µM (inactive)
- GI50 (HOP-62): > 100 µM (inactive)
- GI50 (NCI-H226): > 100 µM (inactive)
- GI50 (M14): > 100 µM (inactive)
- GI50 (HL-60): > 100 µM (inactive)
- GI50 (HCT-116): > 100 µM (inactive)
- GI50 (SR): > 100 µM (inactive)
- GI50 (NCI-H23): > 100 µM (inactive)
- GI50 (K562): 95.3 µM (inactive)
- GI50 (KM12): > 100 µM (inactive)
- GI50 (SF-268): > 100 µM (inactive)
- GI50 (OVCAR-3): > 100 µM (inactive)
- GI50 (UACC-62): > 100 µM (inactive)
- GI50 (ACHN): > 100 µM (inactive)
- GI50 (SW-620): > 100 µM (inactive)
- GI50 (HOP-92): > 100 µM (inactive)
- GI50 (HT-29): > 100 µM (inactive)

SMILES: N#C/C(=C/n1c(=S)[nH]c2ccc([N+](=O)[O-])cc21)C(N)=O
- GI50 (UO-31): > 100 µM (inactive)
- GI50 (A549): > 100 µM (inactive)
- GI50 (SNB-19): > 100 µM (inactive)
- GI50 (HOP-62): > 100 µM (inactive)
- GI50 (NCI-H226): > 100 µM (inactive)
- GI50 (M14): > 100 µM (inactive)
- GI50 (HL-60): 9.33 µM (inactive)
- GI50 (HCT-116): > 100 µM (inactive)
- GI50 (SR): > 100 µM (inactive)
- GI50 (NCI-H23): > 100 µM (inactive)
- GI50 (KM12): > 100 µM (inactive)
- GI50 (SF-295): > 100 µM (inactive)
- GI50 (SF-268): > 100 µM (inactive)
- GI50 (OVCAR-3): > 100 µM (inactive)
- GI50 (UACC-62): > 100 µM (inactive)
- GI50 (ACHN): > 100 µM (inactive)
- GI50 (SW-620): > 100 µM (inactive)
- GI50 (HOP-92): > 100 µM (inactive)
- GI50 (HT-29): > 100 µM (inactive)

— ChEMBL document CHEMBL1201862, “PubChem BioAssay data set” (2004)
